According to US6380182B1, “Methods and compositions controlling biofouling using sulfamic acids” (priority 1997, dated 2002):
Several values for one entry are separate records, joined by “and”; a condition that tells them apart may be missing. Identical values can stand only once.

Key:
Assay type in all cases: cell-based
[1] = test system: Bacteria of the genera Bacillus, Flavobacterium, and Pseudomonas; assay: Bioreactor bacterial adhesion test, quantitative inhibition of bacterial adhesion (IBA) by crystal violet absorbance at 586 nm; details: 100 ppm, acetone solvent, 168 h incubation at 26-28 C, 50% or greater considered effective
Method: The test method, construction of bioreactors, bacterial growth medium, preparation of bacterial inocula, and biofilm production/chemical testing is the same as outlined in EXAMPLE 3. After 168 h (1 week) of incubation at 26-28 C, the slides were removed from the bioreactors and were positioned vertically to […] using a staining procedure. The slides were briefly flamed in order to fix the cells to the surface, and then transferred for one minute to a container of Gram Crystal Violet (DIFCO Laboratories, Detroit, Mich.). The slides were gently rinsed under running tap water, carefully blotted, and again allowed to air dry overnight The degree of bacterial adhesion was then determined by a quantitative method of evaluation. The pair of glass slides and the pair of stainless steel slides corresponding to each treatment were placed each in Petri plate with 10 mL ethanol (technical) to remove the crystal violet staining the cells attached to the slides. A 1 mL aliquot of the crystal violet ethanol solution obtained in each Petri plate was transferred each to a test tube with 9 mL of deionized sterile water ( 1/10 dilution). The blank for calibration of the optical instrument used for the evaluation was a solution of 1 mL of ethanol in 9 mL of deionized sterile water. The absorbance (ABS) of each solution was determined using a spectrophotometer (Spectronic 21, Bausch and Lomb) at a wavelength of 586 nm. The inhibition of bacterial adhesion (IBA) was calculated: IBA=100 (ABS control−ABS treatment)\ABS control 90 or >% IBA=essentially no bacterial adhesion 89-70% IBA=scant 69-50% IBA=slight 30% IBA=moderate 29-<29% IBA=moderate Compounds which receive 50% IBA or greater were considered effective to prevent the adhesion of bacteria to the submerged slides.

[2] = test system: E. Aerogenes; assay: Minimum inhibitory concentration, 18 hour Basal Salts test; details: for MIC pH8: pH 8; for MIC pH6: pH 6
[3] = test system: Bacteria of the genera Bacillus, Flavobacterium, and Pseudomonas; assay: Bioreactor bacterial adhesion test, visual biofilm scoring of crystal violet stained slides; set-up: key: 0=essentially none; 1=scant; 2=slight; 3=moderate; 4=heavy; details: Glass slides; 100 ppm; acetone solvent; 3 days; average of four replicate slides; 0-2 considered effective
Source text: Test Method: The following method effectively defines the ability of a chemical compound to inhibit bacterial adhesion, or attack the formation of existing attached microorganisms, on various types of surfaces. As an overview, bioreactors were constructed in which approximately 1 in.×3 in. slides (glass or stainless steel) were fixed to the edge of the bioreactor. The lower ends (approx. 2 in.) of the slides dipped into a bacterial growth medium (pH 7) within the bioreactor which contained a known concentration of the test chemical. Following inoculation with known bacterial species, the test solutions were stirred continuously for 3 days. Unless otherwise indicated in the results below, the medium within the bioreactor was turbid by the end of three days. […] A staining procedure was then used on the slides in order to determine the amount of bacteria attached to the surfaces of the slides.
Construction of Bioreactors: The bioreactors comprised a 400 ml glass beaker over which a lid (cover from a standard 9 cm diameter glass petri dish) was placed. With the lid removed, slides of the material of choice were taped at one end with masking tape and suspended inside the bioreactor from the top edge of the beaker. This allows the slides to be submerged within the test medium. Typically, four slides (replicates) were uniformly spaced around the bioreactor. The score presented below are the average of the four replicates. A magnetic stirring bar was placed in the bottom of the unit, the lid positioned, and the bioreactor autoclaved. Two different types of material were used as slides, stainless steel as a metal and glass as a hydrophillic surface.
Bacterial Growth Medium: The liquid medium utilized in the bioreactors was described previously by Delaquis, et al., “Detachment Of Pseudomonas fluorescens From Biofilms On Glass Surfaces In Response To Nutrient Stress”, Microbial Ecology 18:199-210, 1989. The composition of the medium was:
The medium was autoclaved and then allowed to cool. If a sediment formed in the autoclaved medium, the medium was resuspended by shaking before use.
Preparation of Bacterial Inocula: Bacteria of the genera Bacillus, Flavobacterium, and Pseudomonas were isolated from a paper mill slime deposit and maintained in continuous culture. The test organisms were separately streaked onto plate count agar and incubated at 30° C. for 24 hours. With a sterile cotton swab, portions of the colonies were removed and suspended in sterile water. […]
Biofilm Production/Chemical Testing: To four separate bioreactors was added 200 ml of the sterile medium prepared above. Chemicals to be evaluated as biodispersants were first prepared as a stock solution (40 mg/2 ml) using either water or a 9:1 acetone: methanol mixture (ac/MeOH) as a solvent. […]

Molecule | Score (% IBA) 168 h Incub. ([1]; Glass slides) | Score (% IBA) 168 h Incub. ([1]; SS (stainless steel) slides) | MIC pH8 [2] | Score (biofilm score) [3] | MIC pH6 [2]
CCCCNS(=O)(=O)O [a, butyl sulfamic acid] | 0 % IBA | 66 % IBA | >500 |  | 
CCCCCNS(=O)(=O)O [b, amyl sulfamic acid] | 65 % IBA | 14 % IBA | >500 |  | 
CCCCCCCCNS(=O)(=O)O [c, octyl sulfamic acid] | 41 % IBA | 54 % IBA | >100 |  | 
CCCCCCCCN(CCCCCCCC)S(=O)(=O)O [d, dioctyl sulfamic acid] |  |  | >100 | 3 | 
CCCCCCCCCCCCNS(=O)(=O)O [e, dodecyl sulfamic acid] | 82 % IBA and 72 % IBA | 78 % IBA and 70 % IBA |  | 3.8 | 
CCCCCCCCCCCCN(CCCCCCCCCCCC)S(=O)(=O)O [f, didodecyl sulfamic acid] | 27 % IBA | 15 % IBA |  | 2.00 | 
CCCCCCCCCCCCCCCCCCNS(=O)(=O)O [g, octadecyl sulfamic acid] |  |  | >500 |  | 
O=S(=O)(O)N(C1CCCCC1)C1CCCCC1 [h, dicyclohexyl sulfamic acid] | 44 % IBA | 57 % IBA | >100 |  | >500
O=S(=O)(O)NN1CCOCC1 [i, morpholino sulfamic acid] | 47 % IBA | 39 % IBA | >100 |  | >500
piperidinyl sulfamic acid [j] | 40 % IBA | 68 % IBA | >100 | 2.5 | >100
